target: T1, JNK1 (Homo sapiens, UniProt P45983); test: JNK1 biochemical assays (one or more of: time resolved fluorescence, Z'-LYTE Cascade, radioactive); settings: Table 2; JNK1 IC50 activity level; read-out: Act. Level
T1 construct: purchased Carna Biosciences
T1 sequence (P45983 whole entry): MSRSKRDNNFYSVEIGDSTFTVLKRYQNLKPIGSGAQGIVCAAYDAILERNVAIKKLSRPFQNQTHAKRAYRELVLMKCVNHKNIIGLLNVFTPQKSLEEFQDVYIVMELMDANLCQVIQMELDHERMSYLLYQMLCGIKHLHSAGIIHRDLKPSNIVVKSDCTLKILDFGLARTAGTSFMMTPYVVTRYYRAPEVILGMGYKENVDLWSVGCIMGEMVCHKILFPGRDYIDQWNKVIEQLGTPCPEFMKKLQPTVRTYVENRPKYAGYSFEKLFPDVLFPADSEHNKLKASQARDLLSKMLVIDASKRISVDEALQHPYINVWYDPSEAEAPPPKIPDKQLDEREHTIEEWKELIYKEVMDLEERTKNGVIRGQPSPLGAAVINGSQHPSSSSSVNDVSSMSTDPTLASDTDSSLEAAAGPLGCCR

| IC50 [nM] | Compound |
| --- | --- |
| < 200 | CC(C)Nc1nc(N[C@@H]2CCc3ccccc3C2)ncc1C(N)=O [Example B-83, (R)-4-(isopropylamino)-2-(1,2,3,4-tetrahydronaphthalen-2-ylamino)pyrimidine-5-carboxamide] |
| 200 to 800 | CC(C)Nc1nc(N[C@@H]2CCc3ncccc3C2)ncc1C(N)=O [Example B-81, (R)-4-(isopropylamino)-2-(5,6,7,8-tetrahydroquinolin-6-ylamino)pyrimidine-5-carboxamide] |
| < 200 | CC(=O)N[C@H]1CC[C@H](Nc2ncc(C(N)=O)c(Nc3ccccc3)n2)CC1 [Example B-6, 2-((1r,4r)-4-acetamidocyclohexylamino)-4-(phenylamino)pyrimidine-5-carboxamide] |
| < 200 | Cc1ccccc1Nc1ncc(C(N)=O)c(Nc2ccccc2)n1 [Example B-30, 4-(phenylamino)-2-(o-tolylamino)pyrimidine-5-carboxamide] |
| < 200 | C[C@@H](Nc1ncc(C(N)=O)c(N[C@@H]2CCC[C@H](O)C2)n1)c1ccc(F)cc1 [Example B-89, 2-((R)-1-(4-fluorophenyl)ethylamino)-4-((1R,3S)-3-hydroxycyclohexylamino)pyrimidine-5-carboxamide] |
| 200 to 800 | COc1ccc(CCNc2ncc(C(N)=O)c(Nc3ccccc3)n2)cc1 [Example B-38, 2-(4-methoxyphenethylamino)-4-(phenylamino)pyrimidine-5-carboxamide] |
| < 200 | COc1cc(Nc2ncc(C(N)=O)c(Nc3ccccc3)n2)cc(OC)c1 [Example B-23, 2-(3,5-dimethoxyphenylamino)-4-(phenylamino)pyrimidine-5-carboxamide] |
| 200 to 800 | NC(=O)c1cnc(NCc2cccc(F)c2)nc1Nc1ccccc1 [Example B-39, 2-(3-fluorobenzylamino)-4-(phenylamino)pyrimidine-5-carboxamide] |
| < 200 | C[C@]1(O)CCC[C@@H](Nc2nc(N[C@H]3CCc4ncccc4C3)ncc2C(N)=O)C1 [Example B-102, 4-((1R,3S)-3-hydroxy-3-methylcyclohexylamino)-2-((S)-5,6,7,8-tetrahydroquinolin-6-ylamino)pyrimidine-5-carboxamide] |
| < 200 | CC(C)(C)Nc1ncc(C(N)=O)c(Nc2ccccc2)n1 [Example B-12, 2-(tert-butylamino)-4-(phenylamino)pyrimidine-5-carboxamide] |
| < 200 | NC(=O)c1cnc(NC2CCCCC2)nc1Nc1ccccc1 [Example B-45, 2-(cyclohexylamino)-4-(phenylamino)pyrimidine-5-carboxamide] |
| 1000 to 10000 | NC(=O)c1cnc(N2CCC(C(N)=O)CC2)nc1Nc1ccccc1 [Example B-37, 2-(4-carbamoylpiperidin-1-yl)-4-(phenylamino)pyrimidine-5-carboxamide] |
| 200 to 800 | CCCNc1ncc(C(N)=O)c(Nc2ccccc2)n1 [Example B-68, 4-(phenylamino)-2-(propylamino)pyrimidine-5-carboxamide] |

same assay, conditions: Table 3; JNK1 IC50 activity level; read-out: Act. Level

| IC50 [nM] | Compound |
| --- | --- |
| 200 to 800 | N#Cc1cnc(N[C@H]2CC[C@H](O)CC2)nc1NC12CC(C1)C2 [Example C-61, 4-(bicyclo[1.1.1]pentan-1-ylamino)-2-((1r,4r)-4-hydroxycyclohexylamino) pyrimidine-5-carbonitrile] |
| < 200 | CCO[C@H]1CC[C@H](Nc2ncc(C#N)c(N[C@@H]3CCC[C@H](O)C3)n2)CC1 [Example C-2, 2-((1r,4R)-4-ethoxycyclohexylamino)-4-((1R,3S)-3-hydroxycyclohexylamino) pyrimidine-5-carbonitrile] |
| 200 to 800 | N#Cc1cnc(NC2CCOCC2)nc1N[C@@H]1CCC[C@H](O)C1 [Example C-5, 4-((1R,3S)-3-hydroxycyclohexylamino)-2-(tetrahydro-2H-pyran-4-ylamino)pyrimidine-5-carbonitrile] |

same assay, conditions: one or more of the JNK1 biochemical assays; read-out: Act. Level (JNK1 IC50 activity level)

| IC50 [nM] | Compound |
| --- | --- |
| < 200 | CC1CCC1Nc1nc(N[C@H]2CC[C@H](OCC(F)(F)F)CC2)ncc1C(N)=O (some centres unmarked) [Example 257, 4-(2-methylcyclobutylamino)-2-((1r,4r)-4-(2,2,2-trifluoroethoxy)cyclohexylamino)pyrimidine-5-carboxamide] |
| < 200 | CC1(Nc2nc(NC34CCC(O)(CC3)CC4)ncc2C(N)=O)CCC1 [Example 412, 2-(4-hydroxybicyclo[2.2.2]octan-1-ylamino)-4-(1-methylcyclobutylamino)pyrimidine-5-carboxamide] |
| < 200 | CCC(CC)Nc1ncc(C(N)=O)c(N[C@@H]2CCC[C@H](O)C2)n1 [Example 498, 4-((1R,3S)-3-hydroxycyclohexylamino)-2-(pentan-3-ylamino)pyrimidine-5-carboxamide] |
| < 200 | C[C@@H](Nc1nc(NC23CCC(O)(CC2)CC3)ncc1C(N)=O)C1CC1 [Example 408, (R)-4-(1-cyclopropylethylamino)-2-(4-hydroxybicyclo[2.2.2]octan-1-ylamino)pyrimidine-5-carboxamide] |
| < 200 | CC(C)CCNc1nc(N[C@H]2CC[C@H](O)CC2)ncc1C(N)=O [Example 220, 2-((1r,4r)-4-hydroxycyclohexylamino)-4-(isopentylamino)pyrimidine-5-carboxamide] |
| < 200 | NC(=O)c1cnc(N[C@H]2CC[C@H](OCC(F)(F)F)CC2)nc1N[C@@H]1CCC[C@H]1CO [Example 331, 4-((1R,2R)-2-(hydroxymethyl)cyclopentylamino)-2-((1r,4R)-4-(2,2,2-trifluoroethoxy)cyclohexylamino)pyrimidine-5-carboxamide] |
| < 200 | CC(C)[C@@H](C)Nc1ncc(C(N)=O)c(N[C@@H]2CC[C@@H](C)[C@H](O)C2)n1 [Example 470, 4-((1R,3R,4R)-3-hydroxy-4-methylcyclohexylamino)-2-((R)-3-methylbutan-2-ylamino)pyrimidine-5-carboxamide] |
| < 200 | NC(=O)c1cnc(N[C@@H]2CCC[C@H](O)C2)nc1NC1CCC1 [Example 433, 4-(cyclobutylamino)-2-((1R,3S)-3-hydroxycyclohexylamino)pyrimidine-5-carboxamide] |
| < 200 | CC(C)(Nc1nc(NC23CCC(O)(CC2)CC3)ncc1C(N)=O)C1CC1 [Example 479, 4-(2-cyclopropylpropan-2-ylamino)-2-(4-hydroxybicyclo[2.2.2]octan-1-ylamino)pyrimidine-5-carboxamide] |
| < 200 | C[C@@H]1CC[C@@H](Nc2nc(N[C@@H](C)C(C)(C)C)ncc2C(N)=O)C[C@H]1O [Example 469, 2-((S)-3,3-dimethylbutan-2-ylamino)-4-((1R,3R,4R)-3-hydroxy-4-methylcyclohexylamino)pyrimidine-5-carboxamide] |
| < 200 | NC(=O)c1cnc(N[C@H]2CCCOC2)nc1NC12CC(C1)C2 [Example 405, (S)-4-(bicyclo[1.1.1]pentan-1-ylamino)-2-(tetrahydro-2H-pyran-3-ylamino)pyrimidine-5-carboxamide] |
| < 200 | CC12CC(Nc3nc(N[C@H]4CC[C@H](OC5CC5)CC4)ncc3C(N)=O)(C1)C2 [Example 442, 2-((1r,4r)-4-cyclopropoxycyclohexylamino)-4-(3-methylbicyclo[1.1.1]pentan-1-ylamino)pyrimidine-5-carboxamide] |
| < 200 | C[C@@H](Nc1nc(N[C@H]2CC[C@H](C(=O)N(C)C)CC2)ncc1C(N)=O)C1CC1 [Example 425, 4-((R)-1-cyclopropylethylamino)-2-((1r,4R)-4-(dimethylcarbamoyl)cyclohexylamino)pyrimidine-5-carboxamide] |
| 200 to 800 | CC(C)Nc1nc(NC(C)(C)C)ncc1C(N)=O [Example 227, 2-(tert-butylamino)-4-(isopropylamino)pyrimidine-5-carboxamide] |

same assay, conditions: tested in one or more of the JNK1 biochemical assays; read-out: Act. Level (JNK1 biochemical assay IC50 activity level)

| IC50 [nM] | Compound |
| --- | --- |
| < 200 | CO[C@H]1CC[C@H](Nc2ncc(C(N)=O)c(N[C@@H]3CC[C@H](O)C3)n2)CC1 [Example A-46, 4-((1R,3S)-3-hydroxycyclopentylamino)-2-((1r,4R)-4-methoxycyclohexylamino)pyrimidine-5-carboxamide] |
| < 200 | NC(=O)c1cnc(N[C@H]2CC[C@H](O)CC2)nc1NC1CC1 [Example A-175, 4-(cyclopropylamino)-2-((1r,4r)-4-hydroxycyclohexylamino)pyrimidine-5-carboxamide] |
| < 200 | NC(=O)c1cnc(N[C@H]2CC[C@H](N3CCCC3)CC2)nc1N[C@@H]1CCC[C@H](O)C1 [Example A-153, 4-((1R,3S)-3-hydroxycyclohexylamino)-2-((1r,4R)-4-(pyrrolidin-1-yl)cyclohexylamino)pyrimidine-5-carboxamide] |
| < 200 | CCO[C@H]1CC[C@@H](Nc2nc(N[C@@H]3CC[C@@H](O)C3)ncc2C(N)=O)CC1 [Example A-95, 4-((1s,4S)-4-ethoxycyclohexylamino)-2-((1R,3R)-3-hydroxycyclopentylamino)pyrimidine-5-carboxamide] |
| < 200 | NC(=O)c1cnc(N[C@H]2CC[C@H](OCC(F)(F)F)CC2)nc1N[C@@H]1CCCC[C@H](O)C1 [Example A-160, 4-((1R,3S)-3-hydroxycycloheptylamino)-2-((1r,4R)-4-(2,2,2-trifluoroethoxy)cyclohexylamino)pyrimidine-5-carboxamid] |
| < 200 | CO[C@H]1CC[C@H](Nc2ncc(C(N)=O)c(N[C@H]3CC[C@@H](N)CC3)n2)CC1 [Example A-120, 4-((1s,4s)-4-aminocyclohexylamino)-2-((1r,4r)-4-methoxycyclohexylamino)pyrimidine-5-carboxamide] |
| 200 to 800 | CO[C@H]1CC[C@H](Nc2ncc(C(N)=O)c(N[C@H]3CCCC[C@](C)(O)C3)n2)CC1 [Example A-184, 4-((1S,3S)-3-hydroxy-3-methylcycloheptylamino)-2-((1r,4S)-4-methoxycyclohexylamino)pyrimidine-5-carboxamide] |
| < 200 | CCC(=O)N[C@H]1CC[C@@H](Nc2nc(N[C@@H](C)C3CCCCC3)ncc2C(N)=O)CC1 [Example A-124, 2-((S)-1-cyclohexylethylamino)-4-((1s,4R)-4-propionamidocyclohexylamino)pyrimidine-5-carboxamide] |

Source: patent US12129237B2, “Substituted diaminocarboxamide and diaminocarbonitrile pyrimidines, compositions thereof, and methods of treatment therewith” (SIGNAL PHARMACEUTICALS, LLC, priority 2011, dated 2024)
